In patent US20260200919A1, “SUBSTITUTED AMINOPYRIDINE COMPOUNDS AND METHODS OF TREATING DISEASE USING SAME” (Atavistik Bio, Inc., priority 2023, published 2026) one finds IC50 data, which are given here for 21 compounds.

In assay [1] the target is T1, human recombinant kinase full-length wildtype AKT1 (Homo sapiens, UniProt P31749).
T1 construct: Purified human recombinant kinase full-length wildtype AKT1 was expressed in insect cells; made in house; host or cells: insect cells
As to the kind of experiment: AKT1 kinase assay (wildtype, TR-FRET, Lance). Type of assay: biochemical. To be noted: 0.6 nM wildtype AKT1, 50 nM Ulight-CREBtide, either 50 μM ATP or 2 mM ATP (not specified which), 60 min at RT. As to the method: AKT1 kinase assay: Inhibitory effects of compounds on wildtype AKT1 were undertaken in a 10-pt dose response kinase activity assay measuring phospho-peptide product formation based on TR-FRET signal as described in the following paragraph.
(§1) Purified human recombinant kinase full-length wildtype AKT1 was expressed in insect cells and activated in vitro by PDPK1. Ulight™—CREBtide (PerkinElmer, catalog number TRF0107) was used as the peptide substrate. The reaction buffer consisted of 50 mM HEPES pH 7.5, 10 mM MgCl2, 0.01% Triton X-100, 0.01% BSA, 2 mM DTT, 0.6 nM AKT1, 50 nM Ulight™-CREBtide and either 50 μM ATP or 2 mM ATP. The compound solution was prepared as 10 mM DMSO stock. […] Final DMSO concentration in the assay was 1%. […] The reaction was stopped after 60 min of incubation at RT by the addition of 10 μL of Detection Mix (PerkinElmer, #CR97-100) consisting of Europium-anti-phospho-CREB (Ser133) (Perkin Elmer, catalog numberTRF0200). Incubation with the detection mix for a further 60 min allowed binding of antibody to the phospho-Ulight™ CREBtide. The fluorescence emissions at 620 nm and 665 nm after excitation at […] was measured using Envision reader. The ratio of the emissions at 665 nm and at 620 nm provided the measure for the amount of phosphorylated CREBtide product of AKT1 kinase activity.

Assay [2] addresses T2, human recombinant kinase full-length AKT1 E17K (Homo sapiens, UniProt P31749, E17K).
T2 construct: Purified human recombinant kinase full-length AKT1 E17K was expressed in insect cells; made in house; host or cells: insect cells
Put plainly: AKT1 E17K kinase assay (TR-FRET, Lance). The class given is biochemical. To be noted: 0.6 nM AKT1 E17K, 50 nM Ulight-CREBtide, either 50 μM ATP or 2 mM ATP (not specified which), 60 min at RT. Here is the method: AKT1 E17K kinase assay: Inhibitory effects of compounds on AKT1 E17K were undertaken in a 10-pt dose response kinase activity assay measuring phospho-peptide product formation based on TR-FRET signal as described in the following paragraph.
as §1, with “full-length” for “full-length wildtype”, “AKT1 E17K” for “AKT1”, “Ulight™-CREBtide” for “Ulight™—CREBtide”, “AKT1 E17K,” for “AKT1,”, “nM. Ulight™ CREBtide” for “nM Ulight™-CREBtide”
For orientation: Time-resolved FRET reads energy transfer from a long-lived donor to a nearby acceptor.

Molecules are shown by their SMILES. Some results are limits rather than exact numbers.

T2 sequence (P31749 whole entry E17K): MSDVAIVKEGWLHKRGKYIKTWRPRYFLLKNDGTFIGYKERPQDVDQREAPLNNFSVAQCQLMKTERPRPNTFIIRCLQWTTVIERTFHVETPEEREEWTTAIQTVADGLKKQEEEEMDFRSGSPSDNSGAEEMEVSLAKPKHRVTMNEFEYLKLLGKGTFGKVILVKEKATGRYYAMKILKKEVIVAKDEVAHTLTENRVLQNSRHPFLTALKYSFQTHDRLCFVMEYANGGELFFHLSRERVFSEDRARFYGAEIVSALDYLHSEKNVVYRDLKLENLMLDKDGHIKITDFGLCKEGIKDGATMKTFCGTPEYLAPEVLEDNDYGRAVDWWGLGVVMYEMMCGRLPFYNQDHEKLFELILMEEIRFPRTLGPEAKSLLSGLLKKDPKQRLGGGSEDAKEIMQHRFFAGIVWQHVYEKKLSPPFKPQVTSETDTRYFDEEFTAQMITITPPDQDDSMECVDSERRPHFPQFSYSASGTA
T1 sequence (P31749 whole entry): as the sequence (P31749 whole entry E17K) above, with K17E counted along it

One may read the IC50 as the concentration that gives 50% inhibition. Regarding `Nc1ncccc1-c1nc2ccc(-c3ccc(F)cc3)nc2n1-c1ccc(NC(=O)c2ccc(C(=O)O)cc2)nc1` [Compound 109, 4-((5-(2-(2-aminopyridin-3-yl)-5-(4-fluorophenyl)-3H-imidazo[4,5-b]pyridin-3-yl)pyridin-2-yl)carbamoyl)benzoic acid], the IC50 was less than 500 nM in assay [1] and 50 to 200 nM in assay [2].
The like results for `Nc1ncccc1-c1nc2ccc(-c3ccccc3)nc2n1-c1ccc(NC(=O)c2ccc(C(=O)O)c(F)c2)nc1` [Compound 117] were, in that order, less than 500 nM and less than 50 nM.
For `Nc1ncccc1-c1nc2cc(-c3ccc(NC(=O)c4ccccc4)cc3)cnc2n1-c1ccc(CNC(=O)c2cccc(CC(=O)O)c2)cc1` [Compound 86, 2-(3-((4-(2-(2-aminopyridin-3-yl)-6-(4-benzamidophenyl)-3H-imidazo[4,5-b]pyridin-3-yl)benzyl)carbamoyl)phenyl) acetic acid] the same measures were less than 500 nM and less than 50 nM.
Turning to `Nc1ncccc1-c1nc2cccnc2n1-c1ccc(CNC(=O)c2cccc(CC(=O)O)c2)cc1` [Compound 101, 2-(3-((4-(2-(2-aminopyridin-3-yl)-3H-imidazo[4,5-b]pyridin-3-yl)benzyl)carbamoyl)phenyl) acetic acid], the IC50 in assay [1] and in assay [2] was greater than 500 nM each time.
Take `Nc1ncccc1-c1nc2ccc(-c3ccccc3)nc2n1-c1ccc(NCc2ccc(C(=O)O)cc2F)nc1` [Compound 68, 4-[[[5-[2-(2-amino-3-pyridyl)-5-phenyl-imidazo[4,5-b]pyridin-3-yl]-2-pyridyl]amino]methyl]-3-fluoro-benzoic acid]: the IC50 is less than 500 nM in assay [1] and 50 to 200 nM in assay [2].
For `Nc1ncccc1-c1nc2ccc(C(F)(F)F)nc2n1-c1ccc(CNC(=O)c2ccc(C(=O)O)cc2)cc1` [Compound 99, 4-((4-(2-(2-aminopyridin-3-yl)-5-(trifluoromethyl)-3H-imidazo[4,5-b]pyridin-3-yl)benzyl)carbamoyl)benzoic acid] the same measures were less than 500 nM and greater than 500 nM.
For `Nc1ncccc1-c1nc2ccc(-c3ccccc3)nc2n1-c1ccc(C2CN(Cc3ccc(C(=O)O)cc3)C2)nc1` [Compound 168, 4-[[3-[5-[2-(2-amino-3-pyridyl)-5-phenyl-imidazo[4,5-b]pyridin-3-yl]-2-pyridyl]azetidin-1-yl]methyl]benzoic acid] the same measures were less than 500 nM and greater than 500 nM.
Turning to `Cc1cc(NC(=O)c2ccc(-n3c(-c4cccnc4N)nc4ccc(-c5ccccc5)nc43)cn2)ccc1C(=O)O` [Compound 177, 4-(5-(2-(2-aminopyridin-3-yl)-5-phenyl-3H-imidazo[4,5-b]pyridin-3-yl)picolinamido)-2-methylbenzoic acid], the IC50 in assay [1] was less than 500 nM; in assay [2] it was 200 to 500 nM.
As to `COC(=O)Cc1cccc(C(=O)NCc2ccc(-n3c(-c4cccnc4N)nc4ccc(-c5ccccc5)nc43)cc2)c1F` [Compound 33, methyl 2-(3-((4-(2-(2-aminopyridin-3-yl)-5-phenyl-3H-imidazo[4,5-b]pyridin-3-yl)benzyl)carbamoyl)-2-fluorophenyl)acetate], the IC50 in assay [1] is less than 500 nM; in assay [2], greater than 500 nM.
As to `Nc1ncccc1-c1nc2ccc(-c3ccccc3)nc2n1-c1ccc(C2CN(C(=O)c3cccc(C(=O)O)c3)C2)cc1` [Compound 72, 3-(3-(4-(2-(2-aminopyridin-3-yl)-5-phenyl-3H-imidazo[4,5-b]pyridin-3-yl)phenyl)azetidine-1-carbonyl)benzoic acid], the IC50 in assay [1] is less than 500 nM; in assay [2], 50 to 200 nM.
Regarding `Nc1ncccc1-c1nc2ccc(-c3ccccc3)nc2n1-c1ccc(CNC(=O)c2cccc(S(=O)(=O)O)c2F)cc1` [Compound 9, 3-((4-(2-(2-aminopyridin-3-yl)-5-phenyl-3H-imidazo[4,5-b]pyridin-3-yl)benzyl)carbamoyl)-2-fluorobenzenesulfonic acid], the IC50 is less than 500 nM in assay [1] and 200 to 500 nM in assay [2].
The like results for `Nc1ncccc1-c1nc2ccc(-c3ccccc3)nc2n1-c1ccc(CNC(=O)c2ccc(CCC(=O)O)cc2)cc1` [Compound 40, 3-(4-((4-(2-(2-aminopyridin-3-yl)-5-phenyl-3H-imidazo[4,5-b]pyridin-3-yl)benzyl)carbamoyl)phenyl) propanoic acid] were, in that order, less than 500 nM and less than 50 nM.
Consider `Cc1nc(NC(=O)c2ccc(C(=O)O)c(F)c2)ccc1-n1c(-c2cccnc2N)nc2ccc(-c3ccccc3)nc21` [Compound 154], for which the results for the IC50 in assay [1] and in assay [2] were less than 500 nM and less than 50 nM, respectively.
For `COc1ccc2nc(-c3cccnc3N)n(-c3ccc(CNC(=O)c4ccc(C(=O)O)cc4C)cc3)c2c1` [Compound 102, 4-((4-(2-(2-aminopyridin-3-yl)-6-methoxy-1H-benzo[d]imidazol-1-yl)benzyl)carbamoyl)-3-methylbenzoic acid], the results for the IC50 in assay [1] and in assay [2] were less than 500 nM and greater than 500 nM, respectively.
For `Nc1ncccc1-c1nc2ccc(-c3ccccc3)nc2n1-c1ccc(NC(=O)c2cccc(C(=O)O)c2F)nc1` [Compound 61, 3-((5-(2-(2-aminopyridin-3-yl)-5-phenyl-3H-imidazo[4,5-b]pyridin-3-yl)pyridin-2-yl)carbamoyl)-2-fluorobenzoic acid], the results for the IC50 in assay [1] and in assay [2] were less than 500 nM and 50 to 200 nM, respectively.
The like results for `Nc1ncccc1-c1nc2ccc(-c3ccccc3)nc2n1-c1ccc(CNC(=O)c2cccc(CC(=O)O)c2)cc1` [Compound 32, 2-(3-((4-(2-(2-aminopyridin-3-yl)-5-phenyl-3H-imidazo[4,5-b]pyridin-3-yl)benzyl)carbamoyl)phenyl)acetic acid] were, in that order, less than 500 nM and 50 to 200 nM.
On to `Nc1ncccc1-c1nc2ccc(-c3ccccc3)nc2n1-c1ccc(NC(=O)c2ccc(C(=O)O)cc2F)nc1` [Compound 62, 4-((5-(2-(2-aminopyridin-3-yl)-5-phenyl-3H-imidazo[4,5-b]pyridin-3-yl)pyridin-2-yl)carbamoyl)-3-fluorobenzoic acid], for which the figures for the IC50 in assay [1] and in assay [2] were less than 500 nM and 50 to 200 nM, respectively.
For `Nc1ncccc1-c1nc2ccc(-c3ccccc3)nc2n1-c1ccc(CNC(=O)c2cccc(CC(=O)O)c2)c(F)c1` [Compound 50, 2-(3-((4-(2-(2-aminopyridin-3-yl)-5-phenyl-3H-imidazo[4,5-b]pyridin-3-yl)-2-fluorobenzyl)carbamoyl)phenyl)acetic acid] the same measures were greater than 500 nM and greater than 500 nM.
For the compound `Nc1ncccc1-c1nc2ccc(C(F)(F)F)cc2n1-c1ccc(CNC(=O)c2cccc(CC(=O)O)c2)cc1` [Compound 107, 2-(3-((4-(2-(2-aminopyridin-3-yl)-6-(trifluoromethyl)-1H-benzo[d]imidazol-1-yl)benzyl)carbamoyl)phenyl) acetic acid], the IC50 in assay [1] and in assay [2] was greater than 500 nM each time.
In the case of `Nc1ncccc1-c1nc2ccc(-c3ccccc3)nc2n1-c1ccc(NC(=O)c2cccc(C(=O)O)c2)nc1` [Compound 60, 3-((5-(2-(2-aminopyridin-3-yl)-5-phenyl-3H-imidazo[4,5-b]pyridin-3-yl)pyridin-2-yl)carbamoyl)benzoic acid], the IC50 was less than 500 nM in assay [1] and less than 50 nM in assay [2].
`COC(=O)c1ccc(C(=O)N2CC(c3ccc(-n4c(-c5cccnc5N)nc5ccc(-c6ccccc6)nc54)cc3)C2)cc1` [Compound 69, methyl 4-(3-(4-(2-(2-aminopyridin-3-yl)-5-phenyl-3H-imidazo[4,5-b]pyridin-3-yl)phenyl)azetidine-1-carbonyl)benzoate]: the IC50 in assay [1] was less than 500 nM; in assay [2], greater than 500 nM.
